These results are taken from patent US8884027B2, “Melampomagnolide B derivatives as antileukemic and cytotoxic agents” (University of Rochester, priority 2010, dated 2014).

For data set [1] the following is noted: rats and dogs, cited from earlier work.
The conditions of data set [2]: cited from earlier work.
The conditions of data set [3]: cited from earlier work. The source holds these as a separate data set.
Another data set is described as follows: Water solubility. It is filed as physicochemical. Here is the method:
Detailed SAR studies of PTL were performed to better understand the basic chemistry required to mediate anti-leukemia activity. […] In biological systems, the consequences of this reactivity are most prevalent for free thiols and cysteine residues. […] A series of PTL analogs was previously prepared with the goal of creating a more therapeutically useful derivative (Neelakantan et al., 2009). […] In addition, DMAPT retains virtually identical anti-leukemia properties as PTL, including the ability to selectively target LSCs. […] Based on these findings, DMAPT has advanced to phase 1 clinical trials, and is currently being evaluated in patients with advanced hematologic malignancies. DMAPT and certain PTL analogs are disclosed in U.S. Pat. Nos. 7,312,242 and 7,678,904, each of which is incorporated herein by reference.
The predicted poor oral bioavailability likely results from low aqueous solubility, since this causes a low dissolution-rate, which is often the rate-limit step during oral drug absorption. Fleisher et al., Improved oral drug delivery: solubility limitations overcome by the use of prodrugs. Adv Drug Deliv Rev, 19:115-130, 1996; Taylor, Improved passive oral drug delivery via prodrugs. Adv Drug Deliv Rev, 19:131-148, 1996. Furthermore, low water solubility can itself be a source of toxicity, due to precipitation of the drug, causing crystalluria. […]

The subject of data set [4] is NF-κB p65 subunit at Ser-536. The data set can be described thus: Inhibition of NF-κB activity: immunoblot of phosphorylated p65 in primary leukemia cells. It is filed as cell-based, human. The conditions noted are these: primary leukemia cells treated six hours, FIG. 3A. Here is the method:
(§1) Primary leukemia cells were treated with varying concentrations of 1, 3 or 4 for six hours, followed by lysis and analysis by immunoblot. Inhibition of NF-κB activity was assessed by measuring phosphorylation of the NF-κB p65 subunit at Ser-536. […] To further evaluate the cytoxicity of 3 and 4, cell viability was measured following 24 h exposure to each compound. […] To achieve a similar degree of cell death with 4, treatment at 20-30 μM was required, in good agreement with the NF-κB phosphorylation analysis shown in FIG. 3A. Thus, while 3 and 4 retain the biological properties of 1, the activity of 4 is reduced approximately 2-fold. The minor loss in activity might be attributed to steric hindrance resulting from the addition of the bulky biotin moiety.
Cell lysates or pull-down products were diluted in 5×SDS-PAGE sample buffer (10% w/v SDS, 10 mM DDT, 20% glycerol, 0.2M Tris-HCl, pH 6.8, 0.05% w/v bromophenol blue), and run on 8-10% SDSPAGE gels. Protein gels were then transferred to PVDF membrane and blocked with 5% milk in 0.1% TBST (20 mM Tris-HCl pH 7.5, 137 mM NaCl, 0.1% Tween 20), followed by incubation with antibodies against p-p65(ser 536) (Cell Signaling), IKK-β (Cell Signaling), p65 (Santa Cruz), β-actin (Sigma), or SA-HRP probe (Thermo).
Background: In western blotting, separated proteins are transferred to a membrane and probed.

A further data set deals with primary leukemia cells. The data set is described as follows: Cell viability assay (Annexin V/7-AAD flow cytometry). It is filed as cell-based, human. The following applies: for concentration achieving efficient induction of cell death: 24 h exposure, FIG. 3B; for anti-leukemia activity compared to PTL (in words): primary AML specimens, FIG. 2. Here is the method: as §1
Cells treated with different concentrations of 1, 3 or 4 were washed with cold PBS and resuspended in 200 μL of Annexin binding buffer (10 mM HEPES/NaOH pH 7.4; 140 mM NaCl; 2.5 mM CaCl2). Annexin-V and 7-amino-actinomycin (7-AAD) were added and the tubes were incubated at ambient temperature in the dark for 15 mins. Cells were then diluted with 200 μL of Annexin binding buffer and analyzed immediately by flow cytometry. Viable cells were scored as Annexin V negative/7-AAD negative. Percent viability data provided are normalized to untreated control specimens.
(In flow cytometry, cells or beads pass a laser one at a time.)

A further data set deals with T1, IKK-β (Homo sapiens, UniProt O14920).
T1 construct: endogenous in cells; host or cells: primary leukemia (AML) cells
T1 sequence (O14920 1-756): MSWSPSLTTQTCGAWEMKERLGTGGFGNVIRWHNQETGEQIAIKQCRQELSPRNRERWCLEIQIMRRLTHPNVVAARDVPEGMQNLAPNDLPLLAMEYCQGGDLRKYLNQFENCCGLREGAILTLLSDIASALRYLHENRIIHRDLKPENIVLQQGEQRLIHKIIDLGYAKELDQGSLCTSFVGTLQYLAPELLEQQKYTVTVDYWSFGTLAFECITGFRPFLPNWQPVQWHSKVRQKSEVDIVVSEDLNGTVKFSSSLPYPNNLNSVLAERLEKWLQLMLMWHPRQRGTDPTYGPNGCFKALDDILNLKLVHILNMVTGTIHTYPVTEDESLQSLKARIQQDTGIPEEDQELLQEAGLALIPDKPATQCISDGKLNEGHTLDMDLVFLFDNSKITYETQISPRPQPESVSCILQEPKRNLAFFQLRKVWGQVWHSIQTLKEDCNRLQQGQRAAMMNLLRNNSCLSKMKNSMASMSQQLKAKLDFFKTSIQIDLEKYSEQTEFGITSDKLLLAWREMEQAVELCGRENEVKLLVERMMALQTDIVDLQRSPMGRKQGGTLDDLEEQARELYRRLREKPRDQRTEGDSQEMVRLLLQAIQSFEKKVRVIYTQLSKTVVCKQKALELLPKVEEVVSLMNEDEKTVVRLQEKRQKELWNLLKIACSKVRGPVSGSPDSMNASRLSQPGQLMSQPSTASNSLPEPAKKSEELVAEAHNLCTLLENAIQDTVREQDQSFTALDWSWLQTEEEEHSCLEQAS
The data set is described as follows: Streptavidin beads pull-down assay with immunoblot. Format: binding. Here is the method: Subsequent studies employed 4 as a reagent to identify potential leukemic proteins modified by MMB. Primary human cells were treated with 20 uM 4 for 6 h, followed by lysis and immunoblot analysis using a streptavidin probe. […] Thus, while the chemistry of 4 should be essentially the same in any cell type, there must be intrinsic differences between normal and leukemic cells that lead to the interaction with unique targets. We propose that this differential binding contributes to the leukemia-specific cell death previously described for 1. To further validate the utility of 4 for analysis of protein targets, we performed biochemical pulldown studies. […] Kwok et al. Chem. Bio., 2001, 8, 759. Therefore, we tested whether 4 would also bind this protein. In FIG. 5, primary leukemia cells were pretreated for 2 h with 1 (lanes 2, 5) or biotin control (b.c.) (lanes 3, 6), prior to a 4 h incubation with 4. Cells were then lysed and immuno-precipitated by streptavidin beads. Pulldown products were analyzed by immunoblot to identify specific proteins. […] Kwok et al., Chem. Bio., 2001, 8, 759; Hehner et al., J. Immunol. 1999, 163, 5617.
Treated cells were washed three times in cold PBS and lysed in Buffer F (10 mM Tris-HCl pH 7.5, 50 mM NaCl, 30 mM Sodium pyrophosphate, 50 mM NaF, 5 μM ZnCl2, 1% Triton X-100) with freshly added proteinase inhibitors (1 mM PMSF, 1×PIC, 0.1 mM Na3OV4). […]

Another data set addresses T2, NF-kB p65 subunit (Homo sapiens, UniProt Q04206).
T2 construct: endogenous in cells; host or cells: primary leukemia (AML) cells
The data set can be described thus: Streptavidin beads pull-down assay with immunoblot. It is filed as binding. The following applies: 2 h pretreatment before 4; FIG. 5 lane 5.

A further data set deals with glutathione. The data set can be described thus: Metabolomic studies of glutathione. Format: cell-based. An excerpt:
For example, both thioredoxin and glutathione-S-transferase are targets of MMB. […] Furthermore, MMB also directly binds the major components of the HSP family (HSP60, 70, and 90). […] If true, then MMB could also impair the function of one or more HSPs. Taken together with the genomic data, these findings indicate a unique mechanism of action, where agents of this class act by inducing multiple stress response mechanisms and simultaneously impairing those very same mechanisms from functioning properly.

“Also recorded” adds a separate entry of the source.

T2 sequence (Q04206 whole entry): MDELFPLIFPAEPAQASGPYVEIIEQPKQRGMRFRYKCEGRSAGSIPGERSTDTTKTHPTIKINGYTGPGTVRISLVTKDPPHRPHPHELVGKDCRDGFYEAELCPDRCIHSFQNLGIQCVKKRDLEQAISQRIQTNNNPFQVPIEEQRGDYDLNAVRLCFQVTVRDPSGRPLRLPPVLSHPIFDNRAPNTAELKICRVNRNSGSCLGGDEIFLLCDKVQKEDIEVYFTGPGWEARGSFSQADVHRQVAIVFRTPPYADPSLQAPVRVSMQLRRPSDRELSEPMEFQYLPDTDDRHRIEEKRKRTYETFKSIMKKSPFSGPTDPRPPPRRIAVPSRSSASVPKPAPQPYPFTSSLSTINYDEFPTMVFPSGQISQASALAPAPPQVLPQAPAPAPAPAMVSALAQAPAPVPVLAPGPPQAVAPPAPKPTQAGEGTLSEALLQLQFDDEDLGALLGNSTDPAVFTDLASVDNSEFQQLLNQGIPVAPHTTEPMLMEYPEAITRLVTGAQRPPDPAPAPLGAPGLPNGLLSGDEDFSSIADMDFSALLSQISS
Description for NF-kB p65 subunit: Primary human cells were treated with 20 uM 4 for 6 h, followed by lysis and immunoblot analysis using a streptavidin probe. […] Therefore, we tested whether 4 would also bind this protein. […] Cells were then lysed and immuno-precipitated by streptavidin beads. Pulldown products were analyzed by immunoblot to identify specific proteins.
Treated cells were washed three times in cold PBS and lysed in Buffer F (10 mM Tris-HCl pH 7.5, 50 mM NaCl, 30 mM Sodium pyrophosphate, 50 mM NaF, 5 μM ZnCl2, 1% Triton X-100) with freshly added proteinase inhibitors (1 mM PMSF, 1×PIC, 0.1 mM Na3OV4). Lysates were cleared by 10 mins of 12,000 rpm spinning at 4° C. and the supernatant was incubated with SA beads for 2 hours on an end-to-end rotor at 4° C. Beads were then washed sequentially with 1×PBS, high salt wash buffer (500 mM NaCl in 0.1 M pH 5.0 NaOAc), low pH wash buffer (0.1 M pH 2.8 glycine-HCl), and one last time in 1×PBS. After the wash steps, the SA beads were boiled for 10 mins in 2×SDS-PAGE sample buffer to elute down all pull-down products.
Cell lysates or pull-down products were diluted in 5×SDS-PAGE sample buffer (10% w/v SDS, 10 mM DDT, 20% glycerol, 0.2M Tris-HCl, pH 6.8, 0.05% w/v bromophenol blue), and run on 8-10% SDSPAGE gels. […]

Turning to `C/C1=C\CC[C@@]2(C)O[C@@H]2[C@H]2OC(=O)[C@H](CN(C)C)[C@@H]2CC1` [DMAPT, dimethylaminoparthenolide], the oral bioavailability in data set [1] was 70%. In data set [1] (doses resulting in serum concentrations of up to 10-fold excess of the biologically active concentration), the tolerability entry was “well tolerated”. In data set [2] (formulated as a fumarate salt), the “water solubility relative to PTL” value was roughly 1000 fold. For the same molecule, in data set [3], the in vivo half-life result is listed as “approximately two”.
Turning to `C=C1C(=O)O[C@@H]2[C@H]3O[C@]3(C)CC/C=C(\CO)CC[C@@H]12` [MMB, Melampomagnolide B], the “solubility in aqueous media (in words)” value in “Water solubility” was “sparingly soluble”. Also, the “concentration at which a significant loss of phosphorylation of NF-κB p65 is observed” value in data set [4] worked out at 7.5 µM. In addition, in the data set on primary leukemia cells, the “concentration achieving efficient induction of cell death” value stood at 7.5 µM and the “anti-leukemia activity compared to PTL (in words)” value is recorded as “indistinguishable from PTL; also recorded: identical anti-leukemia activity compared to PTL”. Further, the “anti-leukemia activity compared to PTL (in words)” value in the data set with primary leukemia cells (listed as 3) was “potency and selectivity similar to 1”.
Regarding `C=C1C(=O)O[C@H]2[C@H]1CC/C(C)=C/CC[C@@]1(C)O[C@@H]21` [PTL, parthenolide], the “effect of preincubation on binding of IKK-β to 4” value at IKK-β (2 h pretreatment before 4, FIG. 5 lane 5) is recorded as “potently reduced binding”. Also, the “effect of preincubation on binding of p65 to 4” value at NF-kB p65 subunit is on record as “potently reduced binding”. Further, the reduction of glutathione in the data set on glutathione turned out to be 11.2 fold. In [2], the “water solubility (in words)” value is “relatively water-insoluble”.
`C=C1C(=O)O[C@@H]2[C@H]3O[C@]3(C)CC/C=C(\COC(=O)CCCCCCCCCCCNC(=O)CCCC[C@@H]3SC[C@@H]4NC(=O)N[C@@H]43)CC[C@@H]12` [Prodrug 4, 14-[N-(Biotinyl)-12-aminododecanoxy]melampomagnolide B]: the “binding of IKK-β in pull-down” value at IKK-β (primary leukemia cells, 4 h incubation with 4, FIG. 5) is given as “one product identified was IKK-β”. Besides, the “concentration at which a significant loss of phosphorylation of NF-κB p65 is observed” value in [4] is 20 µM. Also, the “concentration achieving efficient induction of cell death” value with primary leukemia cells is 20 to 30 µM. In the data set with primary leukemia cells (from viability and NF-κB phosphorylation analysis), the “reduction of activity relative to 1” value was “approximately 2 fold”.
